Test results published in patent US10292991B2, “Small molecule therapeutic compounds that reduce the incidence of intracerebral hemorrhage and brain microhemorrhages” (St. Michaels Hospital, priority 2016, dated 2019).
Read-outs that look alike come from different tables or passages of the source.

Tests used:
[1] = system: zebrafish larvae; assay: Toxicity assay in zebrafish larvae (heart beat, blood flow, cardiac edema); format: in vivo, zebrafish (Danio rerio)
Method: The embryos were collected and distributed into a 96-well plate in 0.5% DMSO, similar to efficacy assays. […] Heart beat and blood flow were ranked from 3 (normal heart beat or blood flow) to 0 (no heart beat or blood flow). Cardiac edema was ranked from 0 (normal heart without edema) to −3 (severe cardiac edema). […] The ratio of TC50/EC50 was calculated in each case.
Heart beat and blood flow were ranked from 3 (normal heart beat or blood flow) to 0 (no heart beat or blood flow). Cardiac edema was ranked from 0 (normal heart without edema) to −3 (severe cardiac edema). […] Data is expressed as mean±SEM from 3 experiments.

[2] = system: bbh mutant zebrafish (mutation in βPix), spontaneous ICH; assay: bbh (bubblehead) mutant genetic model of brain hemorrhage; format: in vivo, zebrafish (Danio rerio); settings: for EC50: read-out: EC50 to rescue brain hemorrhage, bbh Mutant Model
Text: A specific zebrafish line with a gene mutation called bubblehead (bbh) was used. This line has spontaneous ICH. Bubblehead phenotype is caused by a mutation in βPix. Adult homozygous zebrafish were viable and fertile. […] More than 85% of zebrafish larvae display an ICH phenotype.

[3] = system: β-Pix MO-induced hemorrhage in zebrafish; assay: βPix morpholino-induced hemorrhage in zebrafish, rescue by drugs; format: in vivo, zebrafish (Danio rerio); settings: for Efficacy on β-Pix MO Hemorrhage: inhibition of β-Pix MO-induced hemorrhage
Method: (§1) Morpholino oligonucleotides (MOs) were custom-synthesized by Gene Tools (Carvalis, Oreg.); their sequences are shown in Table 1.
(§2) Danieau buffer (58 mM NaCl, 0.7 mM KCl, 0.4 mM MgSO4, 0.6 mM Ca(NO3)2, 5.0 mM HEPES, pH 7.6) was used to dilute the MO solutions to 0.2 mM final concentration. Individual wells were placed on a 1.0% agarose plate, in which the embryos were positioned. Afterwards, the MO solution was injected through the cell yolk into embryos of 1 to 4 cell-stage. The injected quantities varied from 0.5 to 15 ng.
(§3) bbhm292 zebrafish mutant has a hypomorphic mutation in βPix, resulting in ICH/BMH and hydrocephalus. The MO is βPixexon6-MO which blocks splicing of exon 6 and results in premature protein termination. […] Higher doses of βPixexon6-MO (up to 8 ng) result in a lack of blood circulation, and therefore no ICH/BMH was detected. Injection of 8 ng results in complete missplicing of βPix and therefore a null phenotype, whereas lower doses retain some normally spliced βPix. The βPixexon6-MO sequence is 5′-[…]-3′ [SEQ ID NO: 1]. 3Pixexon6-MO was injected into the embryos at the 1-2 cell stage, and compounds were added 12 hpf.
(§4) The first three morpholino pairs were good for the efficacy study. Efficacy assays were performed using Artemether (ARM, Sigma) and artemesunate (ART, GMP). […] Treating these morphants with the drugs rescued the ICH phenotype.

[4] = system: brain hemorrhage induced by 1 μM atorvastatin in zebrafish; assay: Atorvastatin-induced brain hemorrhage (ICH) model in zebrafish, rescue by drugs; settings: for Efficacy on atorvastatin Hemorrhage: ATV model induced by 1 μmol/L atorvastatin, inhibition of hemorrhage; for Result in the ATV zebrafish model: derivatives acquired from Sequoia Research Products
Method: Zebrafish were set up the night before the experiment day. In the morning of the experimental day, we put breeders together for mating and fertilization. 6 hours post-fertilization (hpf), statins was added into a 96-well plate holding 100 μl water with 7 to 8 fish eggs in each well, which was optimized through a serial pilot experiments. Statins were dissolved in DMSO and diluted with 0.5% of DMSO water into a working solution. 100 μl water containing 0.5% of DMSO was the medium for all wells in the final assessment.
For screening NIH compound libraries, 5 μM of each of the drugs from the library was added at 24 hpf into wells containing fish eggs treated with 1 μM ATV since 6 hpf. Hemorrhage positive control wells were treated with ATV but not treated with any drugs. Negative controls were not treated with any chemicals (fish with 0.5% of DMSO water). Geranylgeranyl pyrophosphate (GGPP, 4 mg/L) was used as positive rescue control.
Brain hemorrhage was assessed 72 hpf (66 hours after addition of statins) using stereomicroscopy by two observers. Percentage of brain hemorrhage was used as final readout. Compounds showing more than 70% of rescue of the brain hemorrhages in the initial test were re-tested to generate a final list of hits from the library.
All subsequent EC50 assays of positive compounds were performed with protocols established and optimized during the screening.

[5] = system: Cdh5 - exon2 morpholino-induced hemorrhage in zebrafish; assay: Cdh5 (VE-cadherin) morpholino-induced hemorrhage in zebrafish, rescue by drugs; format: in vivo, zebrafish (Danio rerio); settings: result in words, no EC50
Method: as §2
Panels A & B: Stable EC junctions are maintained by a Cdc42-dependent and VE-cadherin-mediated cell-cell adhesion. VE cadherins are found on the surfaces of EC cell-cell junctions. VE-cadherins are associated with β- and α-catenins at their cytoplasmic domains, which connect them to the actin-based cytoskeleton (blue circles). Cdc42 belongs to the Rho-family of small guanosine triphosphatases (GTPases), which are the main regulators of VE-cadherin-based cell-cell adhesion. The functions of hmgcrb, βPix, and pak2a in regulating junctional stability in zebrafish are shown. HNGCR mediated GGPP biosynthesis regulates Cdc42 prenylation. βPix is a GEF that increases CDC42 affinity for GTP. Pak2 is an effector of Cdc42, which regulates actin filament organization.
Suppression of VE-cadherin induces hemorrhage.

[6] = system: Hmgcrb - splice morpholino-induced hemorrhage in zebrafish; assay: Hmgcrb morpholino-induced hemorrhage in zebrafish, rescue by drugs; format: in vivo, zebrafish (Danio rerio)
Method: as §2, §4

[7] = system: Pak2a - exon8 morpholino-induced hemorrhage in zebrafish; assay: Pak2a morpholino-induced hemorrhage in zebrafish, rescue by drugs; format: in vivo, zebrafish (Danio rerio); settings: result in words
Method: as §2
Another MO was designed to block the splice-donor sites after exon 8 in pak2a. Pak2a is the gene mutated in the rhdmi149 zebrafish mutant that develops ICH/BMH.
Efficacy assays were performed using Artemether (ARM, Sigma) and artemesunate (ART, GMP).

[8] = system: zebrafish larvae; assay: Morpholino injection to induce hemorrhage in zebrafish larvae; format: in vivo; settings: for Hemorrhage: at optimum injected amount, 3 dpf larvae, n = 150-250 per condition
Method: as §1, §2, §3
Another MO was designed to block the splice-donor sites after exon 8 in pak2a. Pak2a is the gene mutated in the rhdmi149 zebrafish mutant that develops ICH/BMH. The pak2a-MO sequence is 5′-[…]-3′ (SEQ ID NO: 2). Eight pg of pak2a-MO was injected per embryo, resulting in […] of embryos with ICH/BMH with low mortality (FIGS. 12 and 14).
Next, optimum amount of each morpholino was determined. The goal was to induce an acceptable percentage of hemorrhage (ideally between 40-80%), without having toxicity from morpholino injection.

[9] = drug from Sequoia Research (UK)
[10] = drug from Sigma, 3 dpf larvae, drug added 24 hpf
[11] = Danio rerio, read-out: EC50 (in nmol/L) on atorfvastatin model (μmol/L)
[12] = Danio rerio, read-out: EC50 to rescue brain hemorrhage, Statin Model
[13] = n = 15-20 larvae per condition, 1-3 times per compound

## C[C@@H]1CC[C@H]2[C@@H](C)C(=O)O[C@@H]3O[C@]4(C)CC[C@@H]1[C@]32OO4 [Artemisinin]
[1]; [9]
  TC50 (Blood flow): 5340 nmol/L
  TC50 (Edema): 6.347 µM
  TC50/EC50 ratio (Blood flow): (20.4)
  TC50/EC50 ratio (Edema): 24.2)
  TC50/EC50 ratio (Heart beat): 4.6e+007)
[1]; drug from Sigma
  TC50/EC50 ratio (Blood flow): (13)
  TC50/EC50 ratio (Edema): (419)
  TC50/EC50 ratio (Heart beat): (104.5)
[1]; [10]
  TC50 (Blood flow): 1058 nmol/L
  TC50 (Edema): 34.134 µM
  TC50 (Heart beat): 8.501 µM
[2]; Danio rerio
  EC50: 177 nM
[3]
  Efficacy on β-Pix MO Hemorrhage: +++++ (One + sign represents 20% inhibition on 1 μmol/L ATV or β-Pix MO-induced hemorrhage.)
[4]
  Efficacy on atorvastatin Hemorrhage: +++++ (One + sign represents 20% inhibition on 1 μmol/L ATV or β-Pix MO-induced hemorrhage.)
  Result in the ATV zebrafish model: tested positive
[4]; [11]
  EC50: 95 nmol/L
[4]; [12]
  EC50: 81.3 nmol/L

## C[C@H]1[C@H](OC(=O)CCC(=O)O)O[C@@H]2O[C@@]3(C)CC[C@H]4[C@H](C)CC[C@@H]1[C@@]24OO3 [Artesunate]
[1]; GMP-Artesunate
  TC50 (Blood flow): 794.4 nmol/L
  TC50 (Edema): 3.196 µM
  TC50 (Heart beat): 2.525 µM
[1]; [9]
  TC50 (Blood flow): 1036 nmol/L
  TC50 (Edema): 0.9378 µM
  TC50 (Heart beat): 9.539 µM
[1]; [10]
  TC50 (Blood flow): 741.5 nmol/L
  TC50 (Edema): 5.367 µM
  TC50 (Heart beat): 8.884 µM
[2]; [13]
  EC50: 127 nM
[3]; Table 6, read-out: EC50 to rescue hemorrhage induced by βPix - exon6 morpholino
  EC50: 95.6 ± 27.9 nM
[4]; read-out: EC50 to rescue brain hemorrhage, Statin Model, Table 4, n = 15-20 larvae per condition, three times per compound
  EC50: 182 nmol/L
[5]
  Rescue of hemorrhage induced by Cdh5 - exon2 morpholino: Rescue effect
[6]; Table 6
  EC50: 167 ± 9.3 nM

## C[C@H]1[C@@H](O)O[C@@H]2O[C@]3(C)CC[C@H]4[C@H](C)CC[C@@H]1[C@@]24OO3 [Dihydroartemisinin]
[1]; [9]
  TC50 (Blood flow): 979.5 nmol/L
  TC50 (Edema): 1.021 µM
[1]; [10]
  TC50 (Blood flow): 890 nmol/L
  TC50 (Edema): 0.7485 µM
[2]; Danio rerio
  EC50: 107 nM
[3]
  Efficacy on β-Pix MO Hemorrhage: +++++ (One + sign represents 20% inhibition on 1 μmol/L ATV or β-Pix MO-induced hemorrhage.)
[4]
  Efficacy on atorvastatin Hemorrhage: +++++ (One + sign represents 20% inhibition on 1 μmol/L ATV or β-Pix MO-induced hemorrhage.)
  Result in the ATV zebrafish model: tested positive
[4]; [11]
  EC50: 67 nmol/L
[4]; [12]
  EC50: 80.8 nmol/L

## C#C[C@]1(O)CC[C@H]2[C@@H]3CCc4cc(O)ccc4[C@H]3CC[C@@]21C [Ethynylestradiol]
[4]
  Efficacy on atorvastatin Hemorrhage: +++ (One + sign represents 20% inhibition on 1 μmol/L ATV or β-Pix MO-induced hemorrhage.)

## CCOC(=O)C1=C(C)NC(C)=C(C(=O)OCC)C1c1ccccc1/C=C/C(=O)OC(C)(C)C [Lacidipine]
[4]
  Efficacy on atorvastatin Hemorrhage: ++++ (One + sign represents 20% inhibition on 1 μmol/L ATV or β-Pix MO-induced hemorrhage.)

## CC(C)[C@]12O[C@H]1[C@@H]1O[C@]13[C@]1(O[C@H]1C[C@@]1(C)C4=C(CC[C@]31C)C(=O)OC4)[C@H]2O [Tripolide]
[3]
  Efficacy on β-Pix MO Hemorrhage: No effect
[4]
  Efficacy on atorvastatin Hemorrhage: ++++ (One + sign represents 20% inhibition on 1 μmol/L ATV or β-Pix MO-induced hemorrhage.)

## Artesunate
[2]; [13]
  EC50: 140 nM
[2]; result in words
  Rescue of hemorrhage / ICH phenotype in bbh mutants: rescues the ICH phenotype
[3]; 5 μmol/L, compounds added 12 hpf
  ICH in βPixexon6-MO injected embryos: prevented ICH
[3]
  Efficacy on β-Pix MO Hemorrhage: +++++ (One + sign represents 20% inhibition on 1 μmol/L ATV or β-Pix MO-induced hemorrhage.)
[4]
  Efficacy on atorvastatin Hemorrhage: +++++ (One + sign represents 20% inhibition on 1 μmol/L ATV or β-Pix MO-induced hemorrhage.)
[4]; read-out: EC50 (in nmol/L) on atorfvastatin model (μmol/L), Table 3, 1 μmol/L atorvastatin, 3 to 4 experiments
  EC50: 211 nmol/L
[5]
  Rescue of hemorrhage induced by Cdh5 - exon2 morpholino: rescue was observed
[7]
  ICH/BMH after treatment with pak2a-MO: dose-dependently reduced
[6]; result in words
  ICH/BMH after MO-mediated inhibition of hmgcrb: prevented

## Benidipine
[3]
  Efficacy on β-Pix MO Hemorrhage: ++++ (One + sign represents 20% inhibition on 1 μmol/L ATV or β-Pix MO-induced hemorrhage.)
[4]
  Efficacy on atorvastatin Hemorrhage: ++++ (One + sign represents 20% inhibition on 1 μmol/L ATV or β-Pix MO-induced hemorrhage.)

## Cdh5 - exon2: morpholino 5′-TACAAGACCGTCTACCTTTCCAATC-3′ (antisense; all phosphorodiamidate morpholino (PMO))
[8]; at optimum injected amount (1.0 ng)
  Cardiac Edema: 35.0% (Cardiac Edema)
[8]
  Hemorrhage: 39.4%

## GGTasel: morpholino 5′-CACGCGGTGTGTGGACTCACGGTCA-3′ (all phosphorodiamidate morpholino (PMO))
[8]
  Hemorrhage: 11.4% (Faint)

## Hmgcrb - splice: morpholino 5′-AACTGCATTCATAAACTCACCCAGT-3′ (all phosphorodiamidate morpholino (PMO))
[8]
  Hemorrhage: 67.9%

## Rap1b - exon3: morpholino 5′-AAATGATGCAGAACTTGCCTTTCTG-3′ (all phosphorodiamidate morpholino (PMO))
[8]
  Hemorrhage: 30.8% (Faint)
